Earlier results as cited in patent publication US6132722A, “Recombinant antibody-enzyme fusion proteins” (Bristol-Myers Squibb Company, priority 1998, dated 2000).

Test system: 3677 melanoma xenografts
Details: drug alone, Kerr et al. 1995

COc1cccc2c1C(=O)c1c(O)c3c(c(O)c1C2=O)C[C@@](O)(C(=O)CO)C[C@@H]3O[C@H]1C[C@H](N)[C@H](O)[C@H](C)O1 [doxorubicin]
response of the 3677 tumor model to treatment: resistant
